Experimental data reported in the Kinase Knowledgebase extract (Sharma et al. 2016).
“And” between values parts separate entries of the source, which are not always exact repeats. Equal entries are not always repeated.

Legend:
MAPK14 (rat) [1] = assay: Secondary Paw Swelling Inhibition (Arthritis Rat)
MAPK14 (human) = MAPK14 (human) (UniProt Q16539); assay: LPS-induced TNF-alpha Release Inhibition (Human Blood)
MAPK14 = MAPK14 (UniProt Q16539); assay: p38-alpha Kinase Inhibition
MAPK14 (rat) [2] = system: MAPK14 (rat)

Sequence of MAPK14 (human) (Q16539 whole entry, looked up): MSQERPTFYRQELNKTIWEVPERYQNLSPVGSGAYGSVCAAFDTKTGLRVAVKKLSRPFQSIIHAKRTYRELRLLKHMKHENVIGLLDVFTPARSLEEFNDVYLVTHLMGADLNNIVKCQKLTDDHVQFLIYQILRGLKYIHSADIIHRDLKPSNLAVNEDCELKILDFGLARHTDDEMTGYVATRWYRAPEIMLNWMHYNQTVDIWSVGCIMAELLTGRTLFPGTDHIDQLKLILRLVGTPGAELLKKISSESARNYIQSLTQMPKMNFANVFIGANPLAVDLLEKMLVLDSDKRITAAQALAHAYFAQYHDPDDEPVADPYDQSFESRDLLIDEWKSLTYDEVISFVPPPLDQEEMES
Sequence of MAPK14 (Q16539 whole entry, looked up): as above

| IC50 (MAPK14 (human)) [nM] | Compound | also measured |
| --- | --- | --- |
| 34 | Fc1ccc(-c2nc(C3CCCCC3)[nH]c2-c2ccncc2)cc1 | – |
| 290 | COc1ccc(CNc2nccc(-c3[nH]c(C4CCNCC4)nc3-c3cccc(C(F)(F)F)c3)n2)cc1 | – |
| > 100000 | CNc1nccc(-c2[nH]c(-c3ccccc3)nc2-c2ccccc2)n1 | – |
| 24000 | C[C@H](Nc1nccc(-c2nc(C3CCNCC3)n(C)c2-c2cccc(C(F)(F)F)c2)n1)c1ccccc1 | – |
| > 100000 | COc1ccc(CNc2nccc(-c3[nH]c(-c4ccccc4)nc3-c3ccccc3)n2)cc1 | – |
| 6 | C[C@H](Nc1nccc(-c2[nH]c(-c3ccccc3)nc2-c2cccc(C(F)(F)F)c2)n1)c1ccccc1 | IC50 (MAPK14): 0.75 nM |
| 585 | Fc1ccc(-c2nc(C3CCCNC3)[nH]c2-c2ccncc2)cc1 (stereo not given) | – |
| 175 | Fc1ccc(-c2nc(C3CCNCC3)[nH]c2-c2ccncc2)cc1 | – |

Second part, the molecule before the results:

| Compound | IC50 (MAPK14 (human)) [nM] | also measured |
| --- | --- | --- |
| COc1ccc2c(c1)c(CC(=O)O)c(C)n2C(=O)c1ccc(Cl)cc1 | – | score (MAPK14 (rat) [1]): 5.5 and 4.9 |
| C[C@@H](Nc1nccc(-c2[nH]c(-c3ccccc3)nc2-c2cccc(C(F)(F)F)c2)n1)c1ccccc1 | 0.4 | IC50 (MAPK14): 0.97 nM |
| Nc1nccc(-c2[nH]c(-c3ccccc3)nc2-c2ccccc2)n1 | > 100000 | – |
| c1ccc(-c2nc(-c3ccccc3)c(-c3ccncn3)[nH]2)cc1 | > 100000 | – |
| Nc1nccc(-c2[nH]c(C3CCNCC3)nc2-c2cccc(C(F)(F)F)c2)n1 | 190 | – |
| Fc1ccc(-c2nc[nH]c2-c2ccncc2)cc1 | > 10000 | – |
| C[C@H](Nc1cc(-c2c(-c3cccc(C(F)(F)F)c3)nc(C3CCNCC3)n2C)ccn1)c1ccccc1 | – | ED50 (MAPK14 (rat) [1]): 8.2 mg/kg/day; inhibition (MAPK14 (rat) [1]; dose or concentration not given here): 76%; ID50 (MAPK14 (rat) [2]): 17.5 mg/kg/day |
| FC(F)(F)c1cccc(-c2nc(-c3ccccc3)[nH]c2-c2ccncc2)c1 | > 100000 | – |
